In DBAASP:
Converted amounts (≈) assume the structure as drawn.

What was measured:
Test in all cases: ≥ marks a high value that may be exact or a test limit, other limits are often not marked, values filed in µg/mL are converted to µM
[1] = test system: Acinetobacter baumannii 97830
[2] = test system: Acinetobacter baumannii 9931
[3] = test system: Acinetobacter baumannii ATCC 19606
[4] = test system: Bacillus subtilis ATCC 23857
[5] = test system: Escherichia coli 780
[6] = test system: Escherichia coli 804
[7] = test system: Klebsiella pneumoniae ATCC 700603
[8] = test system: Pseudomonas aeruginosa 50
[9] = test system: Pseudomonas aeruginosa 73
[10] = test system: Pseudomonas aeruginosa ATCC 27853
[11] = test system: Pseudomonas aeruginosa ATCC 9027
[12] = test system: Staphylococcus aureus 113
[13] = test system: Staphylococcus aureus 75
[14] = test system: Staphylococcus aureus ATCC 29213
[15] = test system: Staphylococcus epidermidis ATCC 12228
[16] = test system: Bacillus subtilis
[17] = test system: Candida albicans SC5314
[18] = test system: Escherichia coli ATCC 25922
[19] = test system: Staphylococcus aureus ATCC 2592
[20] = test system: Aureobasidium pullulans
[21] = test system: Bacillus megaterium
[22] = test system: Candida albicans ATCC 10231
[23] = test system: Corynebacterium glutamicum ATCC 13032
[24] = test system: Micrococcus luteus
[25] = test system: Staphylococcus aureus ATCC 9144
[26] = test system: Bacillus cereus
[27] = test system: Batrachochytrium dendrobatidis
[28] = test system: Candida albicans ATCC 90028
[29] = test system: Candida krusei ATCC 6258
[30] = test system: Candida parapsilosis ATCC 22019
[31] = test system: Escherichia coli
[32] = test system: Leuconostoc lactis
[33] = test system: Listeria innocua
[34] = test system: Pasteurella multocida
[35] = test system: Staphylococcus aureus
[36] = test system: Staphylococcus epidermidis
[37] = test system: Streptococcus uberis
[38] = test system: Escherichia coli ATCC 11229
[39] = test system: Escherichia coli ATCC 35218
[40] = test system: Klebsiella pneumoniae ATCC 13866
[41] = test system: Staphylococcus aureus ATCC 25923
[42] = test system: Staphylococcus aureus ATCC 33591

Compound: NC(=O)[C@H](Cc1c[nH]c2ccccc12)NC(=O)[C@H](CCCN=C(N)N)NC(=O)[C@H](CCCN=C(N)N)NC(=O)[C@H](Cc1c[nH]c2ccccc12)NC(=O)[C@H](Cc1c[nH]c2ccccc12)NC(=O)[C@H](Cc1c[nH]c2ccccc12)NC(=O)[C@H](CCCN=C(N)N)NC(=O)[C@H](CCCN=C(N)N)NC(=O)[C@@H](N)Cc1c[nH]c2ccccc12 [WRRWWWRRW]
- MIC [1]: 16 µM (≈ 25.2 µg/mL)
- MIC [2]: 16 µM (≈ 25.2 µg/mL)
- MIC [3]: 16 µM (≈ 25.2 µg/mL)
- MIC [4]: 4 µM (≈ 6.29 µg/mL)
- MIC [5]: 16 µM (≈ 25.2 µg/mL)
- MIC [6]: ≥ 32 µM
- MIC [7]: 16 µM (≈ 25.2 µg/mL)
- MIC [8]: 16 µM (≈ 25.2 µg/mL)
- MIC [9]: 8 µM (≈ 12.6 µg/mL)
- MIC [10]: 4 µM (≈ 6.29 µg/mL)
- MIC [11]: 8 µM (≈ 12.6 µg/mL)
- MIC [12]: 4 µM (≈ 6.29 µg/mL)
- MIC [13]: 8 µM (≈ 12.6 µg/mL)
- MIC [14]: 4 µM (≈ 6.29 µg/mL)
- MIC [15]: 2 µM (≈ 3.15 µg/mL)

Compound: CC(C)[C@H](N)C(=O)N[C@@H](CCCCN)C(=O)N[C@@H](CCCN=C(N)N)C(=O)N[C@@H](Cc1c[nH]c2ccccc12)C(=O)N[C@@H](CCCCN)C(=O)N[C@@H](CCCCN)C(=O)N[C@@H](Cc1c[nH]c2ccccc12)C(=O)N[C@@H](CCCCN)C(=O)N[C@@H](CCCN=C(N)N)C(=O)N[C@@H](CCCCN)C(=O)N[C@@H](Cc1c[nH]c2ccccc12)C(=O)N[C@@H](CCCCN)C(=O)N[C@@H](CCCCN)C(=O)N[C@@H](Cc1c[nH]c2ccccc12)C(=O)N[C@H](C(N)=O)C(C)C [VKRWKKWKRKWKKWV]
- MIC [16]: 2.8 µM (≈ 6.08 µg/mL)
- MIC [17]: 2.8 µM (≈ 6.08 µg/mL)
- MIC [18]: 1.6 µM (≈ 3.47 µg/mL)
- MIC [19]: 2.8 µM (≈ 6.08 µg/mL)

Compound: C[C@H](NC(=O)[C@H](CCCCN)NC(=O)[C@H](Cc1c[nH]c2ccccc12)NC(=O)[C@H](Cc1c[nH]c2ccccc12)NC(=O)[C@H](Cc1c[nH]c2ccccc12)NC(=O)[C@H](Cc1c[nH]c2ccccc12)NC(=O)[C@H](CCCCN)NC(=O)[C@H](CCCCN)NC(=O)CN)C(=O)N[C@@H](CCCCN)C(N)=O [GKKWWWWKAK]
- MIC [20]: 5.56 µM (≈ 7.79 µg/mL)
- MIC [21]: 2.78 µM (≈ 3.9 µg/mL)
- MIC [4]: 5.56 µM (≈ 7.79 µg/mL)
- MIC [22]: 11.1 µM (≈ 15.6 µg/mL)
- MIC [23]: 5.56 µM (≈ 7.79 µg/mL)
- MIC [18]: 44.5 µM (≈ 62.5 µg/mL)
- MIC [24]: 11.1 µM (≈ 15.6 µg/mL)
- MIC [10]: 89.1 µM (≈ 125 µg/mL)
- MIC [25]: ≥ 89.1 µM

Compound: CC[C@H](C)[C@H](NC(=O)[C@@H](NC(=O)CN)C(C)C)C(=O)N[C@@H](CC(=O)O)C(=O)N[C@@H](C)C(=O)N[C@@H](C)C(=O)N[C@@H](CCCCN)C(=O)N[C@@H](CCCCN)C(=O)N[C@@H](Cc1c[nH]c2ccccc12)C(=O)N[C@@H](CC(N)=O)C(=O)N[C@H](C(=O)N[C@@H](CC(C)C)C(=O)N[C@@H](CCCCN)C(=O)N[C@@H](CC(N)=O)C(=O)N[C@@H](CC(C)C)C(=O)N[C@@H](Cc1ccccc1)C(N)=O)C(C)C [GVIDAAKKVVNVLKNLF]
- MIC [26]: 13.7 µM (≈ 24.8 µg/mL)
- MIC [27]: ≥ 100 µM
- MIC [28]: ≥ 70 µM
- MIC [17]: ≥ 35 µM
- MIC [29]: ≥ 35 µM
- MIC [30]: ≥ 70 µM
- MIC [31]: 54.7 µM (≈ 99.3 µg/mL)
- MIC [32]: 1.64 µM (≈ 2.98 µg/mL)
- MIC [33]: 27.3 µM (≈ 49.6 µg/mL)
- MIC [24]: 27.3 µM (≈ 49.6 µg/mL)
- MIC [34]: 27.3 µM (≈ 49.6 µg/mL)
- MIC [35]: 13.7 µM (≈ 24.8 µg/mL)
- MIC [36]: 6.56 µM (≈ 11.9 µg/mL)
- MIC [37]: 6.56 µM (≈ 11.9 µg/mL)

Compound: CSCC[C@H](NC(=O)[C@H](CC(C)C)NC(=O)[C@H](CC(C)C)NC(=O)[C@H](CCCCN)NC(=O)[C@H](CCCN=C(N)N)NC(=O)[C@H](CCC(=O)O)NC(=O)[C@H](CC(C)C)NC(=O)[C@H](CC(C)C)NC(=O)[C@H](CO)NC(=O)[C@@H](N)CCSC)C(=O)N[C@@H](Cc1cnc[nH]1)C(=O)N[C@@H](Cc1ccccc1)C(=O)N[C@@H](CC(C)C)C(=O)N[C@@H](CCCN=C(N)N)C(=O)N[C@H](C(=O)O)C(C)C [MSLLERKLLMHFLRV]
- MIC [38]: ≥ 33.9 µM
- MIC [39]: ≥ 67.9 µM
- MIC [40]: ≥ 33.9 µM
- MIC [10]: 4.24 µM (≈ 8 µg/mL)
- MIC [41]: 8.48 µM (≈ 16 µg/mL)
- MIC [42]: 8.48 µM (≈ 16 µg/mL)
- MIC [15]: 8.48 µM (≈ 16 µg/mL)

Compound: NC(=O)[C@H](Cc1c[nH]c2ccccc12)NC(=O)[C@H](CCCN=C(N)N)NC(=O)[C@H](Cc1c[nH]c2ccccc12)NC(=O)[C@H](Cc1c[nH]c2ccccc12)NC(=O)[C@H](Cc1c[nH]c2ccccc12)NC(=O)[C@H](CCCN=C(N)N)NC(=O)[C@@H](N)Cc1c[nH]c2ccccc12 [WRWWWRW]
- MIC [1]: 8 µM (≈ 10.1 µg/mL)
- MIC [2]: 8 µM (≈ 10.1 µg/mL)
- MIC [3]: 32 µM (≈ 40.3 µg/mL)
- MIC [4]: 4 µM (≈ 5.04 µg/mL)
- MIC [5]: 8 µM (≈ 10.1 µg/mL)
- MIC [6]: 8 µM (≈ 10.1 µg/mL)
- MIC [7]: 8 µM (≈ 10.1 µg/mL)
- MIC [8]: 16 µM (≈ 20.2 µg/mL)
- MIC [9]: ≥ 32 µM
- MIC [10]: 16 µM (≈ 20.2 µg/mL)
- MIC [11]: 32 µM (≈ 40.3 µg/mL)
- MIC [12]: 4 µM (≈ 5.04 µg/mL)
- MIC [13]: 4 µM (≈ 5.04 µg/mL)
- MIC [14]: 8 µM (≈ 10.1 µg/mL)
- MIC [15]: 2 µM (≈ 2.52 µg/mL)

Compound: C[C@H](NC(=O)[C@H](CCCCN)NC(=O)[C@H](Cc1c[nH]c2ccccc12)NC(=O)[C@H](Cc1c[nH]c2ccccc12)NC(=O)[C@H](Cc1c[nH]c2ccccc12)NC(=O)[C@@H]1CCCN1C(=O)[C@H](CCCCN)NC(=O)[C@H](CCCCN)NC(=O)CN)C(=O)N[C@@H](CCCCN)C(N)=O [GKKPWWWKAK]
- MIC [20]: 11.9 µM (≈ 15.6 µg/mL)
- MIC [21]: 0.761 µM (≈ 0.999 µg/mL)
- MIC [4]: 2.97 µM (≈ 3.9 µg/mL)
- MIC [22]: 23.8 µM (≈ 31.3 µg/mL)
- MIC [23]: 1.52 µM (≈ 2 µg/mL)
- MIC [18]: 23.8 µM (≈ 31.3 µg/mL)
- MIC [24]: 23.8 µM (≈ 31.3 µg/mL)
- MIC [10]: 190 µM (≈ 250 µg/mL)
- MIC [25]: ≥ 95.1 µM

Compound: CC[C@H](C)[C@H](NC(=O)[C@@H](NC(=O)[C@H](CO)NC(=O)CN)C(C)C)C(=O)N[C@@H](CCCN=C(N)N)C(=O)N[C@@H](C)C(=O)N[C@@H](CC(C)C)C(=O)N[C@@H](CCSC)C(=O)N[C@@H](CCCN=C(N)N)C(=O)N[C@@H](CCSC)C(=O)N[C@@H](Cc1ccccc1)C(=O)N[C@@H](C)C(=O)N[C@@H](CCCN=C(N)N)C(=O)N[C@@H](CC(C)C)C(=O)N[C@H](C(=O)NCC(=O)O)C(C)C [GSVIRALMRMFARLVG]
- MIC [38]: ≥ 36 µM
- MIC [39]: ≥ 36 µM
- MIC [40]: ≥ 36 µM
- MIC [10]: 4.5 µM (≈ 8 µg/mL)
- MIC [41]: 36 µM (≈ 64 µg/mL)
- MIC [14]: 36 µM (≈ 64 µg/mL)
- MIC [42]: 4.5 µM (≈ 8 µg/mL)
- MIC [15]: 4.5 µM (≈ 8 µg/mL)
